Experimental data taken from article PMC9732821, “Neurotrophic Activity and Its Modulation by Zinc Ion of a Dimeric Peptide Mimicking the Brain-Derived Neurotrophic Factor N-Terminal Region” (ACS Chemical Neuroscience, 2022).

Key:
[1] = tested on: SH-SY5Y cells; assay: MTS cell viability assay, RA-differentiated SH-SY5Y cells; type: cell-based, human; settings: three days
Description: one-way ANOVA with Dunnett’s multiple comparison test , # p<0.05 versus BDNF, according to one-way ANOVA with Sidak’s multiple comparison test).
Figure S 2. MT S assay for BDNF and its mimetic peptides. Cell viability assay of RA - differentiated SH -SY5Y cells treated for three days with 150 ng/ml BDNF of with different concentrations of m-, d- or s-bdnf peptides (M, D and S, respectively). ** p<0.01, *p<0.05, according to one-way ANOVA with Dunnett’s multiple comparison test).
(1 picture or pasted object on this page, not shown here) […]
incubated for 3 days in serum-free DMEM-F12 (morphometric ctrl). […]
SH-SY5Y were seeded at a density of 3.000 cell/well in 96 multiwell and differentiated as describe above. The viability of differentiated cells, in response to the various treatments, was assessed using an MTS assay (CellTiter 96 AQueous One Solution Cell Proliferation Assay kit; Promega) according to the manufacturer’s instructions. The absorbance of formazan at 490 nm was measured in a colorimetric assay with the EnSightTM multimode plate reader (Perkin Elmer). […]
TrkB phosphorylation was monitored after TrkB-eGFP construct immunoprecipitation, similarly to what previously reported for TrkA phosphorylation 3. […]

[2] = far-UV CD spectra and Zn^2+ titration; type: physicochemical; settings: water, 298 K, pH 7.4, wide minimum around 200 nm
Description: Figure 5 Evaluation of Zn^2+ ion binding on d-bdnf. (A,B) Deconvoluted ESI mass spectra of 10^–6 M d-bdnf solutions incubated in water 2 h, 37 °C in the presence of a 100-fold excess of Zn^2+. 0.1% of formic acid was added (A) or not (B) just before the infusion. (C) Far-UV CD spectra at pH 7.4 for titration with Zn^2+ of d-bdnf (the black curve is the spectrum of peptide; red, green, blue, cyano, and gray are spectra of peptide after the addition of increasing equivalents of metal ions. (D) Spectral changes as a function of zinc addition monitored at λ = 222 nm. [d-bdnf] = 1 × 10^–5 M. (E) Most representative conformation for the BDNF(1–12) dimer coordinating Zn(II) metal ion. Carbon atoms are shown in silver, nitrogen atoms are reported in blue, oxygen atoms in red, sulfur atoms are represented in yellow, and Zn atom is reported in orange. The secondary structure of the peptide is represented in green.
Far-UV CD spectra were obtained at 298 K under a constant flow of nitrogen by using a Jasco model 810 spectropolarimeter. […]
Potentiometric titrations were carried out on a Titrando 905 automatic, using a combined glass-Ag/AgCl electrode (Metrohm, Switzerland). […] To avoid systematic errors and verify reproducibility, the EMF values of each experiment were recorded at different time intervals. The data were analyzed by using HYPERQUAD 2003 program 17. […]

With “HSDPARRGELSV-NH2 [m-bdnf, linear peptide fragment encompassing the first 12 amino acids of the mature NT N-terminal]” the “cell viability (toxicity)” value ([1]; lower doses of m-bdnf) was “some toxicity”.

With “HSDPARRGELSVC-C-VSLEGRRAPDSH (disulfide) [d-bdnf]” the cell viability ([1]; 5–10 μM d-bdnf) was “no reduced vitality of the culture” and the “conformation by far-UV CD” value [2] was “predominantly a random coil conformation”.
